We go through 22 compounds from patent US9540343B2 (Gilead Sciences, Inc., priority 2011, dated 2017).

One data set is described as follows: in vitro. To be noted: human, uninfected MT-4 cells, CC50 (nM), same protocol as Test A, CellTiter-Glo. An outline of the steps:
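Cytoprotection read-out: CellTiter-Glo chemiluminescence after 5 days at 37 °C of HIV-IIIb-infected MT-4 cells (m.o.i. 0.003) with compound in 10-point 3-fold dilutions, quadruplicate, 10% FBS. Cytotoxicity (CC50) measured identically without virus.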

A further data set has as its system HIV-IIIb. The data set can be described thus: Test A: Antiviral assay in MT4 cells. To be noted: Human immunodeficiency virus 1, IIIB, MT4, 120 h, read-out: % inhibition at 2 μM, percent inhibition of virus-induced cell killing, from dose response curve at 2 uM drug; MT-4 cells infected with HIV-IIIb, 5 days, CellTiter-Glo. Format: cell-based, HIV-1.

Structures are written as SMILES. A value given as a limit tells only on which side of the number the result lay.

With `COc1ccc(-c2cccnc2[C@H](Cc2cc(F)cc(F)c2)NC(=O)Cc2c[nH]c3ccc(F)cc23)cn1` [Example 64, (S)—N-(2-(3,5-difluorophenyl)-1-(6′-methoxy-3,3′-bipyridin-2-yl)ethyl)-2-(5-fluoro-1H-indol-3-yl)acetamide], the CC50 at 5 days in the data set “in vitro” was found to be 21100 nM. The inhibition at 2 µM in the data set with HIV-IIIb amounted to 88%.

For the compound `Cc1cc(-c2cccnc2[C@H](Cc2cc(F)cc(F)c2)NC(=O)Cn2nc(C(F)(F)F)c3c2CCCC3)ccc1F` [Example 65, (S)—N-(2-(3,5-difluorophenyl)-1-(3-(4-fluoro-3-methylphenyl)pyridin-2-yl)ethyl)-2-(3-(trifluoromethyl)-4,5,6,7-tetrahydro-1H-indazol-1-yl)acetamide], it took 11100 nM to reach half-maximal cytotoxicity in “in vitro” (CC50 at 5 days). In the data set on HIV-IIIb, the inhibition at 2 µM turned out to be 33%.

Compound `O=C(Cc1c[nH]c2ccc(F)cc12)N[C@@H](Cc1cc(F)cc(F)c1)c1ncccc1-c1cccc(C(=O)NC2CC2)c1` [Example 66, (S)—N-cyclopropyl-3-(2-(2-(3,5-difluorophenyl)-1-(2-(5-fluoro-1H-indol-3-yl)acetamido)ethyl)pyridin-3-yl)benzamide] returned a cytotoxic concentration (CC50) at 5 days in the data set “in vitro” of 16800 nM. In the data set on HIV-IIIb, the inhibition at 2 µM was -2%.

The compound `O=C(Cc1c[nH]c2ccc(F)cc12)N[C@@H](Cc1cc(F)cc(F)c1)c1ncccc1-c1cccc(OC(F)(F)F)c1` [Example 67, (S)—N-(2-(3,5-difluorophenyl)-1-(3-(3-(trifluoromethoxy)phenyl)pyridin-2-yl)ethyl)-2-(5-fluoro-1H-indol-3-yl)acetamide] had a CC50 at 5 days in “in vitro” of 6460 nM. Moreover, the inhibition at 2 µM with HIV-IIIb was found to be 0%.

With `COC(=O)Nc1ccc(-c2cccnc2[C@H](Cc2cc(F)cc(F)c2)NC(=O)Cn2nc(C(F)F)c3c2C(F)(F)C2CC32)cc1` (stereo partly drawn) [Example 68B, (S)-methyl 4-(2-(1-(3-(difluoromethyl)-5,6-dihydro-4,5-(methano)-6,6-difluoro-cyclopenta[c]pyrazol-1(4H)-ylacetamido)-2-(3,5-difluorophenyl)ethyl)pyridin-3-yl)phenylcarbamate], in the data set “in vitro”, the CC50 at 5 days is above 53200 nM. For the same compound, in the data set on HIV-IIIb, the inhibition at 2 µM stood at 28%.

Regarding `Cc1ccc(-c2cccnc2[C@H](Cc2cc(F)cc(F)c2)NC(=O)Cc2c[nH]c3ccc(F)cc23)cc1` [Example 69, (S)—N-(2-(3,5-difluorophenyl)-1-(3-p-tolylpyridin-2-yl)ethyl)-2-(5-fluoro-1H-indol-3-yl)acetamide], the half-maximal cytotoxic concentration (CC50) at 5 days in “in vitro” was determined as 6690 nM. In addition, in the data set on HIV-IIIb, the inhibition at 2 µM amounted to 84%.

`CC(C)NS(=O)(=O)c1ccc(-c2cccnc2[C@H](Cc2cc(F)cc(F)c2)NC(=O)Cn2nc(C(F)F)c3c2C(F)(F)C2CC32)cc1` (stereo partly drawn) [Example 70, (S)—N-(1-(3-(4-(N-isopropylsulfamoyl)phenyl)-pyridin-2-yl)-2-(3,5-difluorophenyl)ethyl)-2-(3-(difluoromethyl)-5,6-dihydro-4,5-(methano)-6,6-difluoro-cyclopenta[c]pyrazol-1(4H)-yl)acetamide] gave a CC50 at 5 days in the data set “in vitro” of 51200 nM. Moreover, the inhibition at 2 µM with HIV-IIIb stood at 56%.

Regarding `O=C(Cn1nc(C(F)F)c2c1C(F)(F)C1CC21)N[C@@H](Cc1cc(F)cc(F)c1)c1ncccc1-c1ccc(S(=O)(=O)N2CCCCC2)cc1` (stereo partly drawn) [Example 71, (S)—N-(1-(3-(4-((piperidin-1-yl)sulfonyl)phenyl)-pyridin-2-yl)-2-(3,5-difluorophenyl)ethyl)-2-(3-(difluoromethyl)-5,6-dihydro-4,5-(methano)-6,6-difluoro-cyclopenta[c]pyrazol-1(4H)-yl)acetamide], the CC50 at 5 days in “in vitro” was above 53200 nM. In the data set on HIV-IIIb, the inhibition at 2 µM is 64%.

`O=C(Cc1c[nH]c2ccc(F)cc12)N[C@@H](Cc1cc(F)cc(F)c1)c1ncccc1-c1ccsc1` [Example 72, (S)—N-(2-(3,5-difluorophenyl)-1-(3-(thiophen-3-yl)pyridin-2-yl)ethyl)-2-(5-fluoro-1H-indol-3-yl)acetamide] showed a CC50 at 5 days in “in vitro” of 16200 nM. For the same compound, the inhibition at 2 µM in the data set with HIV-IIIb was determined as 56%.

In turn, `Cn1ncc2ccc(-c3cccnc3[C@H](Cc3cc(F)cc(F)c3)NC(=O)Cn3nc(C(F)F)c4c3C(F)(F)C3CC43)cc21` (stereo partly drawn) [Example 73, (S)—N-(1-(3-(1-methylindazole-6-yl)-pyridin-2-yl)-2-(3,5-difluorophenyl)ethyl)-2-(3-(difluoromethyl)-5,6-dihydro-4,5-(methano)-6,6-difluoro-cyclopenta[c]pyrazol-1(4H)-yl)acetamide] came in with a CC50 at 5 days in “in vitro” of 9790 nM. Moreover, in the data set with HIV-IIIb, the inhibition at 2 µM was found to be 15%.

The compound `CC12CCC(c3c(C(F)(F)F)nn(CC(=O)N[C@@H](Cc4cc(F)cc(F)c4)c4ncccc4-c4ccc(F)c(C(N)=O)c4)c31)C2(C)C` (stereo partly drawn) [Example 74D, (S)-5-(2-(2-(3,5-difluorophenyl)-1-(2-(L-4,5,6,7-Tetrahydro-3-trifluoromethyl-7,8,8-trimethyl-1H-4,7-(methano)indazol-1-yl)acetamido)ethyl)pyridin-3-yl)-2-fluorobenzamide] had a CC50 at 5 days in “in vitro” of 8470 nM. In the data set on HIV-IIIb, the inhibition at 2 µM amounted to 4%.

`Cc1ccc2cc(-c3cccnc3[C@H](Cc3cc(F)cc(F)c3)NC(=O)Cn3nc(C(F)F)c4c3C(F)(F)C3CC43)ccc2n1` (stereo partly drawn) [Example 75, (S)—N-(1-(3-(2-methylquinoline-6-yl)-pyridin-2-yl)-2-(3,5-difluorophenyl)ethyl)-2-(3-(difluoromethyl)-5,6-dihydro-4,5-(methano)-6,6-difluoro-cyclopenta[c]pyrazol-1(4H)-yl)acetamide] gave a CC50 at 5 days in the data set “in vitro” of 10700 nM. In the data set with HIV-IIIb, the inhibition at 2 µM stood at 17%.

`Cc1cccc(-c2cccnc2[C@H](Cc2cc(F)cc(F)c2)NC(=O)Cn2nc(C(F)(F)F)c3c2CCCC3)c1` [Example 76, (S)—N-(2-(3,5-difluorophenyl)-1-(3-m-tolylpyridin-2-yl)ethyl)-2-(3-(trifluoromethyl)-4,5,6,7-tetrahydro-1H-indazol-1-yl)acetamide] gave a CC50 at 5 days in the data set “in vitro” of 11500 nM. In addition, the inhibition at 2 µM in the data set with HIV-IIIb worked out at 20%.

On to `O=C(Cn1nc(C(F)F)c2c1C(F)(F)C1CC21)N[C@@H](Cc1cc(F)cc(F)c1)c1ncccc1-c1cnc2cc[nH]c2c1` (stereo partly drawn) [Example 77, (S)—N-(1-(3-(1H-pyrrolo[3,2-b]pyridine-6-yl)-pyridin-2-yl)-2-(3,5-difluorophenyl)ethyl)-2-(3-(difluoromethyl)-5,6-dihydro-4,5-(methano)-6,6-difluoro-cyclopenta[c]pyrazol-1(4H)-yl)acetamide], for which, in “in vitro”, the midpoint of cytotoxicity, the CC50 at 5 days, lay at 12400 nM. The inhibition at 2 µM in the data set with HIV-IIIb amounted to 65%.

With `O=C(Cc1c[nH]c2ccc(F)cc12)N[C@@H](Cc1cc(F)cc(F)c1)c1ncccc1-c1ccc(Cl)cc1Cl` [Example 78, (S)—N-(1-(3-(2,4-dichlorophenyl)pyridin-2-yl)-2-(3,5-difluorophenyl)ethyl)-2-(5-fluoro-1H-indol-3-yl)acetamide], the CC50 at 5 days in the data set “in vitro” came out at 7890 nM. Further, the inhibition at 2 µM in the data set on HIV-IIIb is 11%.

In “in vitro”, `NC(=O)c1cc(-c2cccnc2[C@H](Cc2cc(F)cc(F)c2)NC(=O)Cn2nc(C(F)(F)F)c3c2CCCC3=O)ccc1F` [Example 79F, (S)-5-(2-(2-(3,5-difluorophenyl)-1-(2-(4-oxo-3-(trifluoromethyl)-4,5,6,7-tetrahydro-1H-indazol-1-yl)acetamido)ethyl)pyridin-3-yl)-2-fluorobenzamide] came in with a CC50 at 5 days above 50600 nM. Further, the inhibition at 2 µM with HIV-IIIb was 19%.

`CCOC(=O)c1nn(CC(=O)N[C@@H](Cc2cc(F)cc(F)c2)c2ncccc2-c2ccc(F)c(C(N)=O)c2)c2c1CC1CC2C1` [Example 81D, (S)-5-(2-(2-(3,5-difluorophenyl)-1-(2-(4,5,6,7-tetrahydro-3-carboethoxy-5,7-(methano)indazol-1-yl)acetamido)ethyl)pyridin-3-yl)-2-fluorobenzamide] yielded a CC50 at 5 days in “in vitro” of 16700 nM. Further, the inhibition at 2 µM in the data set with HIV-IIIb stood at 75%.

In the case of `O=C(Cc1c[nH]c2ccc(F)cc12)N[C@@H](Cc1cc(F)cc(F)c1)c1ncccc1-c1ccc(S(=O)(=O)N2CCOCC2)cc1` [Example 82, (S)—N-(2-(3,5-difluorophenyl)-1-(3-(4-(morpholinosulfonyl)phenyl)pyridin-2-yl)ethyl)-2-(5-fluoro-1H-indol-3-yl)acetamide], it took 19300 nM to reach half-maximal cytotoxicity in “in vitro” (CC50 at 5 days). In addition, the inhibition at 2 µM in the data set with HIV-IIIb worked out at 114%.

`O=C(Cn1nc(C(F)(F)F)c2c1CCCC2)N[C@@H](Cc1cc(F)cc(F)c1)c1ncccc1-c1cccc(OC(F)(F)F)c1` [Example 84, (S)—N-(2-(3,5-difluorophenyl)-1-(3-(3-(trifluoromethoxy)phenyl)pyridin-2-yl)ethyl)-2-(3-(trifluoromethyl)-4,5,6,7-tetrahydro-1H-indazol-1-yl)acetamide] showed a CC50 at 5 days in “in vitro” of 9050 nM. In addition, the inhibition at 2 µM with HIV-IIIb is 18%.

`O=C(Cn1nc(C(F)F)c2c1C(F)(F)C1CC21)N[C@@H](Cc1cc(F)cc(F)c1)c1ncccc1-c1cnc2nccnc2c1` (stereo partly drawn) [Example 85, (S)—N-(1-(3-(pyrido[2,3-b]pyrazin-7-yl)-pyridin-2-yl)-2-(3,5-difluorophenyl)ethyl)-2-(3-(difluoromethyl)-5,6-dihydro-4,5-(methano)-6,6-difluoro-cyclopenta[c]pyrazol-1(4H)-yl)acetamide]: the CC50 at 5 days in “in vitro” turned out to be 43000 nM. The inhibition at 2 µM in the data set on HIV-IIIb came out at 9%.

`NC(=O)c1cccc(-c2cccnc2[C@H](Cc2cc(F)cc(F)c2)NC(=O)Cc2c[nH]c3cc(F)ccc23)c1` [Example 86, (S)-3-(2-(2-(3,5-difluorophenyl)-1-(2-(6-fluoro-1H-indol-3-yl)acetamido)ethyl)pyridin-3-yl)benzamide] gave a CC50 at 5 days in “in vitro” of 21400 nM. Further, in the data set on HIV-IIIb, the inhibition at 2 µM was determined as 97%.

Turning to `NC(=O)c1cc(-c2cccnc2[C@H](Cc2cc(F)cc(F)c2)NC(=O)Cn2nc(C(F)F)c3c2C2CC(C3)C2)ccc1F` [Example 87, (S)-5-(2-(2-(3,5-difluorophenyl)-1-(2-(4,5,6,7-tetrahydro-3-difluoromethyl-5,7-(methano)indazol-1-yl)acetamido)ethyl)pyridin-3-yl)-2-fluorobenzamide], in “in vitro”, the CC50 at 5 days is 21600 nM. For the same compound, in the data set on HIV-IIIb, the inhibition at 2 µM came out at 101%.
